Patent US10457947B2, “Targeting of human glucocorticoid receptor beta in cancer” (The University of Toledo, priority 2016, dated 2019)

What was measured:
[1] = tested on: human GRβ mRNA; assay: GRβ mRNA expression by Real-Time PCR in T24 cells; assay type: cell-based
Procedure: The human uroepithelial carcinoma cell lines UMUC-3 and T24 (ATCC) were routinely cultured and maintained in Minimum Essential Medium (MEM) containing 10% fetal bovine serum (FBS) with 1% antibiotic-antimycotic. Cells were maintained at 37° C. and 5% CO2. Media was changed to MEM containing 10% Dialyzed-FBS with 1% antibiotic antimycotic 24 hours before hormone treatments.
A peptide nucleic acid (PNA) (Sweet-P) conjugated to a cell penetrating peptide (CPP) targeting the miR144 binding site in the 3′UTR of the human GRβ was designed using the PANAGENE® website (www.panagene.com). The Sweet-P targeting sequence was: (TGCCATACACAGTAT) [SEQ ID NO:1]. The Sweet-P sequence targeted the miR144 binding site in the 3′ UTR of human GRβ. (FIG. 7.) All PNAs were attached to an O-linker and a modified tat protein (VQRKRQKLMP) [SEQ ID NO:2] for delivery into the cell. Treatment with Sweet-P was performed for 48 hrs before the cells were analyzed.

[2] = tested on: T24 bladder cancer cells; assay: Scratch (wounding) migration assay in T24 cells; assay type: cell-based, human
Procedure: Cells were seeded on a 6-well plate and grown for 24 hours until a monolayer of 90% confluent cells was obtained. A scratch wound in the cell monolayer was introduced using a sterile pipette tip. Images were taken at the time of wounding, and every 5 hours thereafter. Migration was measured as the fold change of the width of the wound remaining. To determine miRNA and mRNA expression during the scratch (wounding assay), total RNA was collected using the miRNeasy® Mini Kit (Qiagen) (described above) at 0 and 3 hours after the migration.

[3] = tested on: E006AA cell lines; assay: Migration of E006AA-Par and E006AA-hT prostate cancer cells; assay type: cell-based, human
Text: FIG. 15: Lentiviral shRNA suppression of human GRβ in E006AA-Par and E006AA-hT prostate cancer cells suppresses migration. *, P<0.05 and **, P<0.01 (scramble vs GRβ KD). N=12.

[4] = tested on: 3′UTR of human GRβ; assay: 3′UTR GRβ-Luc luciferase reporter assay in T24 cells; assay type: cell-based; details: Sweet-P at 0.1 nM, 1.0 nM, and 10 nM, 48 hours, versus 0 nM
Procedure: For transient transfection, cells were plated on a 6-well or 12-well dish in MEM containing 10% FBS. Cells were washed with OPTI-MEM and transfected using GeneFect® (Alkali Scientific, Inc.), according to the manufacturer's […] protocol. OPTI-MEM was removed after 12 h and MEM containing 10% FBS was added.
The expression vector pMirTarget containing the 3′UTR of hGRβ (hGRβ 3′UTR-luc) was purchased from Origene. The binding sites were mutated using the QuikChange Lightning Multi Site-Directed Mutagenesis Kits® (Agilent Technologies). Successful mutations were confirmed through sequencing by Operon MWG. Cells were seeded onto a 12-well plate and grown overnight. Transient transfection was performed as described above. To determine the effect of Sweet-P on the T24 bladder cancer cells, the cells were treated 24 h after transfection for 48 hours post transfection, 3′UTR GRβ-Luc WT or mutant expression was measured by luciferase, and pRL-CMV Renilla reporter for normalization to transfection efficiency, using the Promega dual luciferase assay system (Promega, Madison, Wis.).
A peptide nucleic acid (PNA) (Sweet-P) conjugated to a cell penetrating peptide (CPP) targeting the miR144 binding site in the 3′UTR of the human GRβ was designed using the PANAGENE® website (www.panagene.com). […] Treatment with Sweet-P was performed for 48 hrs before the cells were analyzed.

[5] = tested on: GRβ; assay: Immunofluorescence of GRβ in T24 cells; assay type: cell-based, human
[6] = tested on: GRα; assay: Immunofluorescence of GRα in T24 cells; assay type: cell-based, human
Procedure: (§1) FIGS. 3A-3D: Dexamethasone and insulin treatment in T24 cells (FIGS. 3A-3B) and UMUC-3 cells (FIGS. 3C-3D). GRβ and GRα expression and location were measured using immunofluorescence with control (vehicle treatment), dexamethasone, or insulin treatments. Cells were seeded onto coverslips in media containing 10% dialyzed FBS for 24 hours before treating. Cells were treated with 100 nM insulin, 100 nM dexamethasone, or vehicle for 30 minutes. Secondary antibodies (labeling of human GRα or GRβ) are shown in green, DAPI (nuclei labeling) are shown in blue, a merge of the green and blue images are shown in panel 3 to represent localization, and a bright field image is shown in gray (scale bar=25 μm).
Cells were seeded onto a glass coverslip placed in a 6-well plate and grown were grown to desired confluence. Cells were then fixed with 3% paraformaldehyde, permeated with PBS containing 0.25% Triton X (PBST), and blocked with PBST containing 1% BSA. Slides were then stained with either anti-hGRα Rabbit IgG or anti-hGRβ Rabbit IgG antibodies obtained from Antibody Research. Secondary staining was performed using anti-Rb IgG 488 antibody from Life Technologies. Coverslips were planted onto slides with Fluoromount-G®, and DAPI was added to stain nuclei. Slides were magnified using a Leica Microscope with a 63X oil Immersion lens. […]

[7] = target: T1, GRα (Homo sapiens, UniProt P04150); assay: GRα controlled gene expression by Real-Time PCR in T24 cells; assay type: cell-based; details: Sweet-P 48 hours then 2 hours of dexamethasone
T1 construct: endogenous in cells; host or cells: T24 human uroepithelial carcinoma cells (ATCC)
T1 sequence (P04150 1-777): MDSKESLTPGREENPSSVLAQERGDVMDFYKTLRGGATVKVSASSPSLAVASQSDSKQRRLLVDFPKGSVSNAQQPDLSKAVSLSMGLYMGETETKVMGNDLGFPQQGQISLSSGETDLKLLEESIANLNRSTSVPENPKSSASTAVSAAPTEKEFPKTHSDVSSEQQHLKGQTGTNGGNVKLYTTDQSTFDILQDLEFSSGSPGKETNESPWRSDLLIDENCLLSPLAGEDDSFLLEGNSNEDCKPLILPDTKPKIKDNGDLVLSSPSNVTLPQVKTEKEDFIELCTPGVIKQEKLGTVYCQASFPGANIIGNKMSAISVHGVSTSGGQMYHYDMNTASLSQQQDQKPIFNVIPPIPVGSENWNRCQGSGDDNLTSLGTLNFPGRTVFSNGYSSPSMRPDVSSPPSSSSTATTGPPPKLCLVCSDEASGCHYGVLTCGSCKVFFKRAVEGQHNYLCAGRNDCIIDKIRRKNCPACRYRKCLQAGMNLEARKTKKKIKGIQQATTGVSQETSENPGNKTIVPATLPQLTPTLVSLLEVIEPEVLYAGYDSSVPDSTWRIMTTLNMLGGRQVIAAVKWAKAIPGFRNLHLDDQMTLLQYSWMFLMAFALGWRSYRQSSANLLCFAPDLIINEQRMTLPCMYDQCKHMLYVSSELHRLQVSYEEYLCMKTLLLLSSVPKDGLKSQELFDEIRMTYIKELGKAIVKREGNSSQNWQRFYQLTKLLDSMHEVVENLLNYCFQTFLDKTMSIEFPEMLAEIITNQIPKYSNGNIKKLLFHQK
Procedure: GRα controlled gene response was measured by Real-Time PCR for FKBP51, GILZ, p21, VEGFA, GRα, and GRβ. Cells were seeded in media containing 10% dialyzed FBS for 24 hours before treatment.
Total RNA was extracted from cell cultures using the 5-Prime PerfectPure® RNA Cell Kit (Fisher Scientific Company, LLC). Total RNA was read on a NanoDrop 2000® spectrophotometer (ThermoFisher Scientific, Wilmington, Del.) and cDNA was synthesized using High Capacity cDNA Reverse Transcription Kit (Applied Biosystems). PCR amplification of the cDNA was performed by quantitative real-time PCR using TrueAmp SYBR Green qPCR SuperMix® (Smart Bioscience). The thermocycling protocol consisted of 10 min at 95° C., 40 cycles of 15 sec at 95° C., 30 sec at 60° C., and 20 sec at 72° C., and finished with a melting curve ranging from 60-95° C. to allow distinction of specific products. Normalization was performed in separate reactions with primers to GAPDH.

[8] = tested on: mTOR; assay: Immunostaining of mTOR in T24 cells; assay type: cell-based, human; details: 10 nM Sweet-P, 48 hours
[9] = tested on: PTEN; assay: Immunostaining of PTEN in T24 cells; assay type: cell-based, human; details: 10 nM Sweet-P, 48 hours
[10] = tested on: GRβ; assay: GRβ expression in A549 lung cancer cells; assay type: cell-based, human
Text: (§2) FIG. 10: Sweet-P blocks GRβ expression in lung and prostate cancer cells.

[11] = tested on: GRβ; assay: GRβ expression in E006AA-Par prostate cancer cells; assay type: cell-based, human
Text: as §2

[12] = tested on: GRβ; assay: Immunofluorescence of GRβ in UMUC-3 cells; assay type: cell-based, human; details: 100 nM, 30 minutes
Procedure: as §1, with “Cells were seeded onto coverslips in media containing 10% dialyzed FBS for 24 hours before treating.” left out
(§3) Cells were seeded onto a glass coverslip placed in a 6-well plate and grown were grown to desired confluence. […] Slides were then stained with either anti-hGRα Rabbit IgG or anti-hGRβ Rabbit IgG antibodies obtained from Antibody Research. […] Coverslips were planted onto slides with Fluoromount-G®, and DAPI was added to stain nuclei. Slides were magnified using a Leica Microscope with a 63X oil Immersion lens. Images were acquired in the XYZ plane in 1 μm steps with a 63X oil objective (NA 1.40). Images were acquired with the LAS AF® software in sequential scan mode. AlexaFluor488® was excited at 488 nm with collection at 500-558 nm and DAPI was excited with the multi-photon (MP) laser tuned to 790 nm with collection at 420-500 nm. Images are 2D projections of the of image stack as labeled. […]

[13] = tested on: GRα; assay: Immunofluorescence of GRα in UMUC-3 cells; assay type: cell-based, human; details: 100 nM, 30 minutes, versus vehicle
Procedure: as §1, with “Cells were seeded onto coverslips in media containing 10% dialyzed FBS for 24 hours before treating.” left out
as §3

[14] = tested on: T24 cells; assay: miRNA expression by Real-Time PCR in T24 cells; assay type: cell-based, human; details: 100 nM Insulin, 2 hours
Procedure: FIGS. 8A-8B: […] ANOVA p<0.001; Bonferoni comparisons ***, […]=6). […] Total RNA was extracted from cell cultures using the miRNeasy® Mini Kit (Qiagen). […] The miScript Primer Assay® primers were purchased from Qiagen. Normalization was performed in separate reactions with primers to Hs_RNU6-2_11, At_U19_1, and Hs_SNORD61_11. The cloning vector pCMV-MIR containing the miR144 sequence was purchased from Origene. Cells were seeded on a 6-well plate, and transient transfection of the plasmid was completed as described above. After 48 hours-post transfection, RNA was harvested.

[15] = tested on: UMUC-3 cells; assay: miRNA expression by Real-Time PCR in UMUC-3 cells; assay type: cell-based, human; details: 100 nM Insulin, 2 hours
Procedure: FIGS. 8A-8B: The effect of dexamethasone treatment on cell migration and miRNA expression in UMUC-3 and T24 bladder cancer cells. Migration was measured in the UMUC-3 and T24 cells that were treated with either vehicle or 100 nM dexamethasone for 30 minutes prior to wounding, and is presented as the fold-change in the wound width remaining (FIG. 8A). Images of the migration assay at […] post wounding are shown, with wound edges marked at T0 (black solid line) and T15 (white dashed line). ANOVA p<0.001; Bonferoni comparisons ***, p<0.0001 (versus Vehicle) (±S.E.; n=6). Total RNA was extracted from the UMUC3 and T24 cells after treating with either vehicle, 100 nM dexamethasone, or 100 nM Insulin in dialyzed media for 2 hours before harvesting, and miRNA expression was measured by Real-Time PCR (FIG. 8B). *, p<0.05; (Dex versus Veh); $, p<0.05; (Ins versus Veh); ##, p<0.01; ##, p<0.001; (T24 versus UMUC3) (±S.E.; n=6).
Total RNA was extracted from cell cultures using the miRNeasy® Mini Kit (Qiagen). Total RNA was read on a NanoDrop 2000® spectrophotometer (Thermo Fisher Scientific, Wilmington, Del.) and cDNA was synthesized using the miScript RT Kit (Qiagen). […] The miScript Primer Assay® primers were purchased from Qiagen. Normalization was performed in separate reactions with primers to Hs_RNU6-2_11, At_U19_1, and Hs_SNORD61_11.

[16] = 100 nM, 30 minutes, versus vehicle

GRβ shRNA: pGFP-C-shLenti lentiviral GRβ shRNA (CCAGAAAGCACATCTCACACATTAATCTG) [reference compound]
knockdown of GRβ expression (reduction) ([1]; stable shRNA lentivirus, versus T24 Scramble): 64%
migration ([2]; T24 GRβ shRNA cells versus T24 Scramble): significant (ANOVA: p<0.001) decrease
migration ([3]; E006AA prostate cancer cells, lentiviral shRNA versus scramble): significant reduction

Sweet-P: PNA TGCCATACACAGTAT [SEQ ID NO:1] attached to an O-linker and modified tat protein VQRKRQKLMP, targeting the miR144 binding site in 3′UTR of human GRβ (all peptide nucleic acid (PNA); O-linker and modified tat peptide attached, position not given here)
GRβ mRNA expression ([1]; Sweet-P at 1.0 nM, 10 nM, 50 nM, and 100 nM, 48 hours, versus 0 nM): significantly (p<0.05) decreased
luciferase expression of the pMirTarget 3′ UTR hGRβ construct [4]: significantly (p<0.001) reduced
GRβ protein expression ([5]; 10 nM Sweet-P, 48 hours): reduced
GRα protein expression ([6]; 10 nM Sweet-P, 48 hours): no effect
FKBP51 expression (GRα activity) [7]: enhancing expression
tumor necrosis factor α (TNFα) expression (GRα activity) [7]: decreasing
mTOR protein expression [8]: unaffected
PTEN protein expression [9]: significantly (p<0.0001) increased
migration (wound width remaining) ([2]; T24 cells, 10 nM Sweet-P for 48 hours prior to wounding): significantly (ANOVA: p<0.001) inhibited
GRβ expression [10]: blocks
GRβ expression [11]: blocks
migration ([3]; E006AA-Par and E006AA-hT cells, Sweet-P): significantly decreased

insulin: insulin, hormone treatment at 100 nM
GRβ localization ([5]; 100 nM, 30 minutes): no change
GRβ expression (immunofluorescence) [5, 16]: significantly increased
GRα expression (immunofluorescence) [6, 16]: significantly decreased (p<0.001)
GRβ localization [12]: higher in the nucleus
GRβ expression (immunofluorescence) ([12]; versus vehicle): significantly increased
GRα expression (immunofluorescence) [13]: no effect
expression of miR-33a, miR-144, miR-181a, miR-181b, miR-181c, or miR-181d [14]: did not significantly change
miR-181a expression [15]: suppress
